Measured values published in PMC12406203 (Journal of Medicinal Chemistry, 2025).

Tests used:
Assay in all cases: KINOMEscan
Type in all cases: binding
PLK4 = target: T1, PLK4 (Homo sapiens, UniProt O00444)
T1 construct: purchased Eurofins DiscoverX, LLC; host or cells: E. coli BL21-derived host (T7 phage) or HEK-293
T1 sequence (O00444 1-970): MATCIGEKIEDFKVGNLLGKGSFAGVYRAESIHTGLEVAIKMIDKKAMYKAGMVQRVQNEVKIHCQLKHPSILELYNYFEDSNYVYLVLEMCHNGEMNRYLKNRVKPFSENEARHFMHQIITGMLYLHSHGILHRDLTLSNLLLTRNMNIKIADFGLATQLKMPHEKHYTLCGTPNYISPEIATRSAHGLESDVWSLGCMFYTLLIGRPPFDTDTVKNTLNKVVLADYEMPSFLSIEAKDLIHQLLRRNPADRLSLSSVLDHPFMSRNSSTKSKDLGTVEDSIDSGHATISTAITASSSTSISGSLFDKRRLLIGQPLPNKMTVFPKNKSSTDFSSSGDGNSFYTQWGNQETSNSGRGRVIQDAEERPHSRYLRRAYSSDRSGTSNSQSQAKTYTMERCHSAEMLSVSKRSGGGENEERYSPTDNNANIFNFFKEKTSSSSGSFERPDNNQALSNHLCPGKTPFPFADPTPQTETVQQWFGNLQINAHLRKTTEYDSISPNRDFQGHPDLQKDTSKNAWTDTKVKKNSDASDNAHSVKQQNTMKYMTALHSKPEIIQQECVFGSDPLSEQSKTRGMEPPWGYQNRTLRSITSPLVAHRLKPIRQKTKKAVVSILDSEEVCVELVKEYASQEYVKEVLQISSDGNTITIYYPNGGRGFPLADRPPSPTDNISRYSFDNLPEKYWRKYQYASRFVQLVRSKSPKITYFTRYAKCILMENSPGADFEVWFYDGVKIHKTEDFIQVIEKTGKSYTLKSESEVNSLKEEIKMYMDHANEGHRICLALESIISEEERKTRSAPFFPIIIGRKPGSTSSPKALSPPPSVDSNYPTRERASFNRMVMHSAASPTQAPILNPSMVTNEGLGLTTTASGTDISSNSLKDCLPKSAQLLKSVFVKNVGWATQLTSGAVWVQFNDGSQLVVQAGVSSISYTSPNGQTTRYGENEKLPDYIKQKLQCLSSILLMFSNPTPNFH
Description: (§1) The kinase inhibition profile of compounds 94 and 95 was assessed against 103 protein kinases by Eurofins DiscoverX, LLC., using the KINOMEscan assay. Kinase-tagged T7 phage strains were grown in parallel in 24-well blocks in an E. coli host derived from the BL21 strain. E. coli were grown to log-phase and infected with T7 phage from a frozen stock (multiplicity of infection = 0.4) and incubated with shaking at 32 °C until lysis (90–150 min). The lysates were centrifuged (6000g) and filtered (0.2 μm) to remove cell debris. The remaining kinases were produced in HEK-293 cells and subsequently tagged with DNA for qPCR detection. […] The liganded beads were blocked with excess biotin and washed with blocking buffer (SeaBlock (Pierce), 1% BSA, 0.05% Tween 20, 1 mM DTT) to remove unbound ligand and to reduce nonspecific phage binding. […] Test compounds were prepared as 100× stocks in 100% DMSO and directly diluted into the assay. All reactions were performed in polypropylene 384-well plates in a final volume of 0.02 mL. […] The kinase concentration in the eluates was measured by qPCR.
(§2) The compound(s) were screened at the concentration(s) requested, and results for primary screen binding interactions are reported as RA (%), where lower numbers indicate stronger hits in the matrix. RA=(testcompoundsignal−PCsignal/NCsignal−PCsignal)×100

CDK3 = target: T2, CDK3 (Homo sapiens, UniProt Q00526)
T2 construct: purchased Eurofins DiscoverX, LLC; host or cells: E. coli BL21-derived (T7 phage) or HEK-293
Description: as §1, §2

AURKA = target: T3, AURKA (Homo sapiens, UniProt O14965)
T3 construct: purchased Eurofins DiscoverX, LLC; host or cells: E. coli BL21-derived (T7 phage) or HEK-293
T3 sequence (O14965 1-403): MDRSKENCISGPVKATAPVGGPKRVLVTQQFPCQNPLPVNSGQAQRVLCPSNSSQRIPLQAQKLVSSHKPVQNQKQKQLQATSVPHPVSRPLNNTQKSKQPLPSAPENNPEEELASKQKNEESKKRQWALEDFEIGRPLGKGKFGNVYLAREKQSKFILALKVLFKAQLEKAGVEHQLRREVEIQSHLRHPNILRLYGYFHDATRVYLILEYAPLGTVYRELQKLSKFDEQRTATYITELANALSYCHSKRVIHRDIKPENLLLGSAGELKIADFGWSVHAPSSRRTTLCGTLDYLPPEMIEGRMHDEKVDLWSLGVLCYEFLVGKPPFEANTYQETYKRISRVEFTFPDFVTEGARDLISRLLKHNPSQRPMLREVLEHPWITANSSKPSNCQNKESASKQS
Description: as §1, §2

ERK 2 = target: T4, ERK 2 (Homo sapiens, UniProt P28482)
T4 construct: purchased Eurofins DiscoverX, LLC; host or cells: E. coli (T7 phage) or HEK-293
Description: as §1, §2

[1] = target: T5, ABL1(E255K)-phosphorylated (Homo sapiens, UniProt P00519, E255K)
T5 construct: purchased Eurofins DiscoverX, LLC; host or cells: E. coli BL21-derived (T7 phage) or HEK-293
Description: as §1, §2

T2 sequence (Q00526 whole entry): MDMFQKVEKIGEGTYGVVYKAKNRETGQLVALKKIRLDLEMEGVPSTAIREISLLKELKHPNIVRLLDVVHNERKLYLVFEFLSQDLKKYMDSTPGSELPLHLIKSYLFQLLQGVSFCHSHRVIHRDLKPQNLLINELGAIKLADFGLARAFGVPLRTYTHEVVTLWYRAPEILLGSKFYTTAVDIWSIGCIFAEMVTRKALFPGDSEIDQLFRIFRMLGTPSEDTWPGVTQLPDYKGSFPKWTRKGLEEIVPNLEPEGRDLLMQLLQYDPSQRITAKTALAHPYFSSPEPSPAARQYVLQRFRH
T5 sequence (P00519 whole entry E255K): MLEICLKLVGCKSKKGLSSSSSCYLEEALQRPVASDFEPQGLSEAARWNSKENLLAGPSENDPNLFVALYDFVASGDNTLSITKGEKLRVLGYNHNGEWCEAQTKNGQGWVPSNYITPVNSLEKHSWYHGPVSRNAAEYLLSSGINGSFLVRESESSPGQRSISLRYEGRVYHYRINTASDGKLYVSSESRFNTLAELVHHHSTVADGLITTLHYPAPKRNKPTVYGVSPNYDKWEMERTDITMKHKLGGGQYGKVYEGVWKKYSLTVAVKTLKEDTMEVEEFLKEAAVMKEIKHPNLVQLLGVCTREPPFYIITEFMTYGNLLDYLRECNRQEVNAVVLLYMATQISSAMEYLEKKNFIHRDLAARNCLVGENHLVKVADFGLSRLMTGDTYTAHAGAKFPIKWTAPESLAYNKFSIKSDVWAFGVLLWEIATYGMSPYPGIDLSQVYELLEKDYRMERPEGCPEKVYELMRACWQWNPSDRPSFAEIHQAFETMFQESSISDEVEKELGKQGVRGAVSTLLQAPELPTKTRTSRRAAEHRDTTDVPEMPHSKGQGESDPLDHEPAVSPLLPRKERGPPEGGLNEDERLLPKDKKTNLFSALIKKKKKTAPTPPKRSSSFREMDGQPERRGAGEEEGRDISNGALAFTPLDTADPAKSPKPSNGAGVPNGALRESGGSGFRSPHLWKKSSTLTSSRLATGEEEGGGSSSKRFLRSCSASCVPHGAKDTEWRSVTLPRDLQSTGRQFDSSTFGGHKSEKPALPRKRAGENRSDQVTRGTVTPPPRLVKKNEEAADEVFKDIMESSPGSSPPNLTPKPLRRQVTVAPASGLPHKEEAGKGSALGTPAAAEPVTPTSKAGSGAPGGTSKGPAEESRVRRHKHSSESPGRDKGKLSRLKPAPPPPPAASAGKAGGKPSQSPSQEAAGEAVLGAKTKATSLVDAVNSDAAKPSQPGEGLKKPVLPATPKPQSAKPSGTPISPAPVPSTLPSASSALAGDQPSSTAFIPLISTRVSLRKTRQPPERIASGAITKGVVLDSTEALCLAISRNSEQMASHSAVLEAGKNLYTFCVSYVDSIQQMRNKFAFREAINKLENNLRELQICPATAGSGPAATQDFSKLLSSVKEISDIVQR
T4 sequence (P28482 whole entry): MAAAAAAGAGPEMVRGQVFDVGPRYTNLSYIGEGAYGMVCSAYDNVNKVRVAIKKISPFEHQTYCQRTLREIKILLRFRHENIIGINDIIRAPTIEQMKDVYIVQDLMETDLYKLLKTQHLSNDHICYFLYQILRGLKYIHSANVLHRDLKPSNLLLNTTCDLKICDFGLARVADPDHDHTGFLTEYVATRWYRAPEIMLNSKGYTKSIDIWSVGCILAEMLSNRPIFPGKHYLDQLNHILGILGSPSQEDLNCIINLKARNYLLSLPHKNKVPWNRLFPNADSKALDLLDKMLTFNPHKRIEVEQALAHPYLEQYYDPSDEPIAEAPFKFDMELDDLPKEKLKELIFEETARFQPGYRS

CN(C)CCNC(=O)c1cc2c(cnn2CC2CCCCC2)cc1Cc1ccc(F)cc1F [Compound 95, 1-(Cyclohexylmethyl)-5-(2,4-difluorobenzyl)-N-(2-(dimethylamino)ethyl)-1H-indazole-6-carboxamide]
RA @ 1000nM (PLK4): 100%
RA @ 10000nM (PLK4): 100%
RA @ 1000nM (CDK3): 100%
RA @ 10000nM (CDK3): 100%
RA @ 1000nM (AURKA): 95%
RA @ 10000nM (AURKA): 93%
RA @ 1000nM (ERK 2): 100%
RA @ 10000nM (ERK 2): 100%
RA @ 1000nM [1]: 96%
RA @ 10000nM [1]: 93%

CC(C)Cn1ncc2cc(Cc3ccc(F)cc3F)c(C(=O)NCCN(C)C)cc21 [Compound 94, 5-(2,4-Difluorobenzyl)-N-(2-(dimethylamino)ethyl)-1-isobutyl-1H-indazole-6-carboxamide]
RA @ 1000nM (PLK4): 100%
RA @ 10000nM (PLK4): 100%
RA @ 1000nM (CDK3): 100%
RA @ 10000nM (CDK3): 1.3%
RA @ 1000nM (AURKA): 96%
RA @ 10000nM (AURKA): 93%
RA @ 1000nM (ERK 2): 100%
RA @ 10000nM (ERK 2): 98%
RA @ 1000nM [1]: 96%
RA @ 10000nM [1]: 55%
